The supplement of paper PMC6965134
± gives the standard deviation of the averaged measurements.

Assay: TIMS collisional cross section (CCS, N2) of the lipid ion; higher = larger ion cross section
Settings: ionization mode: positive, one isomer drawn

SMILES	TIMS collisional cross section (sample type: HeLa)	TIMS collisional cross section (sample type: Liver)	TIMS collisional cross section (sample type: plasma)
CCCCCC/C=C\CCCCCCCC(=O)O[C@H](COC(=O)CCCCCCCCCCCCCCC)COP(=O)([O-])OCC[N+](C)(C)C [PC 16:0_16:1] (ion (formula + adduct): [C40H78NO8P+H] 1+)	282.63 ± 1.3 Å²	282.3 Å²	282.3 Å²
CCCCCCC/C=C\CCCCCCCC(=O)O[C@H](COC(=O)CCCCCCCCCCCCCCC)COP(=O)([O-])OCC[N+](C)(C)C [PC 16:0_17:1] (ion (formula + adduct): [C41H80NO8P+H] 1+)	285.8 Å²	–	–
CCCCCCCCCCCCCCCCCC(=O)O[C@H](COC(=O)CCCCCCCCCCCCCCC)COP(=O)([O-])OCC[N+](C)(C)C [PC 16:0_18:0] (ion (formula + adduct): [C42H84NO8P+H] 1+)	–	291.4 Å²	–
CCCCCCCC/C=C\CCCCCCCC(=O)O[C@H](COC(=O)CCCCCCCCCCCCCCC)COP(=O)([O-])OCC[N+](C)(C)C [PC 16:0_18:1] (ion (formula + adduct): [C42H82NO8P+H] 1+)	288.37 ± 0.9 Å²	–	287.7 Å²
CCCCCCCC/C=C\CCCCCCCC(=O)O[C@H](COC(=O)CCCCCCCCCCCCCCC)COP(=O)([O-])OCC[N+](C)(C)C [PC 16:0_18:1] (ion (formula + adduct): [C42H82NO8P+Na] 1+)	288.7 Å²	–	–
CCCCC/C=C\C=C\CCCCCCCCC(=O)O[C@H](COC(=O)CCCCCCCCCCCCCCC)COP(=O)([O-])OCC[N+](C)(C)C [PC 16:0_18:2] (ion (formula + adduct): [C42H80NO8P+H] 1+)	–	286.3 Å²	282.45 ± 2.8 Å²
CCCCC/C=C\C/C=C\C/C=C\CCCCC(=O)O[C@H](COC(=O)CCCCCCCCCCCCCCC)COP(=O)([O-])OCC[N+](C)(C)C [PC 16:0_18:3] (ion (formula + adduct): [C42H78NO8P+H] 1+)	–	282 Å²	282 Å²
CCCCCCCC/C=C\CCCCCCCCCC(=O)O[C@H](COC(=O)CCCCCCCCCCCCCCC)COP(=O)([O-])OCC[N+](C)(C)C [PC 16:0_20:1@] (ion (formula + adduct): [C44H86NO8P+H] 1+)	–	295.2 Å²	–
CCCCCCCC/C=C\C/C=C\C/C=C\CCCC(=O)O[C@H](COC(=O)CCCCCCCCCCCCCCC)COP(=O)([O-])OCC[N+](C)(C)C [PC 16:0_20:3] (ion (formula + adduct): [C44H82NO8P+H] 1+)	–	–	290.5 Å²
CC/C=C\C/C=C\C/C=C\C/C=C\C/C=C\CCCC(=O)O[C@H](COC(=O)CCCCCCCCCCCCCCC)COP(=O)([O-])OCC[N+](C)(C)C [PC 16:0_20:5@] (ion (formula + adduct): [C44H78NO8P+H] 1+)	286.9 Å²	–	–
CC/C=C\C/C=C\C/C=C\C/C=C\C/C=C\CCCC(=O)O[C@H](COC(=O)CCCCCCCCCCCCCCC)COP(=O)([O-])OCC[N+](C)(C)C [PC 16:0_20:5] (ion (formula + adduct): [C44H78NO8P+H] 1+)	–	285.7 Å²	–
CCCCC/C=C\C/C=C\C/C=C\C/C=C\C/C=C\CCC(=O)O[C@H](COC(=O)CCCCCCCCCCCCCCC)COP(=O)([O-])OCC[N+](C)(C)C [PC 16:0_22:5@] (ion (formula + adduct): [C46H82NO8P+H] 1+)	–	292.7 Å²	–
CCCCC/C=C\C/C=C\C/C=C\C/C=C\C/C=C\CCC(=O)O[C@H](COC(=O)CCCCCCCCCCCCCCC)COP(=O)([O-])OCC[N+](C)(C)C [PC 16:0_22:5] (ion (formula + adduct): [C46H82NO8P+H] 1+)	–	–	293.3 Å²
CC/C=C/C/C=C/C/C=C/C/C=C/C/C=C/C/C=C/CCC(=O)O[C@H](COC(=O)CCCCCCCCCCCCCCC)COP(=O)([O-])OCC[N+](C)(C)C [PC 16:0_22:6] (ion (formula + adduct): [C46H80NO8P+H] 1+)	291.8 Å²	–	292 Å²
